In US20240287037A1, “CYCLOALKYL COMPOUNDS AND PHARMACEUTICAL COMPOSITIONS THAT MODULATE IKZF2” (Plexium, Inc., priority 2021, published 2024):
Like-named read-outs stand apart in the source and are kept apart here.

Key:
[1] = molecular target: human E3 ligase component cereblon (CRBN) (Homo sapiens (Human), UniProt Q96SW2); experiment: Cereblon (CRBN) target engagement, NanoBRET TE Intracellular E3 Ligase Assay in transfected HEK-293T cells
Description: HEK-293T cells were harvested ca. 75% confluent with trypsin and plated (500,000 cells/well) in a 6-well tissue culture plate in 2 mL of Dulbecco's Modified Eagle Medium (DMEM)^+10% Fetal Bovine Serum (FBS) and incubated overnight at 37° C.
The NanoLue-CRBN fusion vector (Nluc-CRBN; Promega) contains the coding region of human E3 ligase component cereblon (CRBN) fused to the C-terminus of the NanoLuc luciferase coding region. A mixture of 10 ng Nluc-CRBN and 990 ng DDB1 Expression Vector (Promega) was added to 125 μL Opti-Minimum Essential Medium (Opti-MEM™; Thermo Fisher) along with 2 μL P3000 reagent (Thermo Fisher) in a 1.5 mL epppendorf tube. This solution was added to Lipofectamine 3000 transfection reagent (5 μL; Thermo Fisher) in Opti-MEM (125 μL), mixed well, and incubated for 15 minutes at room temperature. The transfection mixture was added dropwise to cells and incubated overnight at 37° C., 5% CO2. Following transfection, cells were washed once with PBS, and trypsin (250 μL) was added and incubated 30-45 see to dislodge cells. Complete media (2 mL) was added to resuspend cells to form a single cell suspension. Cells were centrifuged at 320×g for 5 min at room temperature, the supernatant was removed, and the cell pellet resuspended in Opti-MEM (3 mL; wash step repeated ×2). After final resuspension in 5 mL Opti-MEM, cells were counted and resuspended at 200,000 cells/mL in Opti-MEM.
Cereblon target engagement was monitored by Bioluminescence Resonance Energy Transfer (BRET) in transfected HEK-293T cells using the NanoBRET TE Intracellular E3 Ligase Assay (Promega). Briefly, 384-well plates (white opaque plates, Corning 3574, low binding surface) were seeded with transfected HEK-293T cells (38 μl/well). 2 μL of 10 μM CRBN tracer (diluted 1:5 in Tracer Dilution Buffer) was added to each well. Plates were centrifuged at 320×g for 1 min at room temperature. […] Plates were shaken for 2 minutes on a microplate shaker to mix compounds. Plates were centrifuged at 320×g for 1 min at room temperature, and subsequently incubated for 2 hours at 37° C.
After incubation, plates were allowed to cool to room temperature for 15 minutes. 20 μL of 3X Complete NanoBRET™ Nano-Glo® Substrate plus Inhibitor Solution (Promega, 1:166 Substrate and 1:500 dilution of Extracellular NanoLuc® Inhibitor diluted in Opti-MEM) were added to each well, Plates were incubated with shaking at room temperature for 3 minutes covered with foil. Plates were read on a CLARIOstar microplate reader (BMG LabTech), measuring at 450 nm (donor emission) and 610 nm (acceptor emission). The IC50 values were determined by regression to best fit four-parameter logistic curves using GraphPad Prism.

IKZF2 (Helios) = IKZF2 (Helios) (Homo sapiens (Human), UniProt Q96SW2+Q9UKS7); experiment: IKZF2 reporter degradation assay (HEK 293T IKZF2-mNeonGreen reporter cell line); type: cell-based; conditions: 24 hour incubation; for inhibition at 1 µM: HEK-293T, 24 h
Source text: (§1) Polycistronic plasmids were constructed for the mammalian expression of fluorescent reporter fusions of human transcription factors IKZF1 (Ikaros), IKZF2 (Helios), and IKZF3 (Aiolos). The respective protein sequences had their C-terminal end joined to a GGGGS linker repeated three times followed by mNeonGreen, P2A sequence, and mScarlet. The DNA sequences of the open reading frames are as follows:
(§2) IKZF1, IKZF2, and IKZF3 constructs were cloned into the UCOE Hygromycin expression vectors (Millipore Sigma). Reporter constructs were transfected using cationic lipid reagents into adherent HEK 293T cells and stable integrants were selected by treatment with 200 μg/mL hygromycin B. Clonal populations were obtained from the population of stable integrants either by limiting dilution or fluorescence activated cell sorting.
(§3) The clonal stable cell lines were maintained under constant 200 μg/mL hygromycin B selection while being passaged for use in the degradation assays. […] The fluorescence intensity of the IKZF1/2/3-mNeonGreen (FITC channel) and mScarlet (PE channel) reporters were routinely analyzed by flow cytometry to confirm consistent expression levels between experiments.
(§4) The IKZF1/IKZF2/IKZF3 degradation assays were carried out by harvesting the HEK 293T reporter cell lines and resuspending the cells in media formulated for reduced background fluorescence (FluoroBrite; Thermo Fisher). The respective cell lines were seeded at a density of 4000 cells/well into black-walled 384-well optical grade assay tissue culture plates. The cells were incubated overnight at 37° C. to allow for attachment to the assay plate. Dilutions of the compounds were prepared in DMSO from 10 mM compound stocks. The assay plates were treated with appropriate concentrations of the compounds by dispensing the DMSO dilutions in quadruplicate wells with an upper limit of 0.5% final DMSO.
(§5) After 24 hour incubation with the compounds, the assay plates were imaged on an ImageXpress Pico microscopy system (cells maintained at 37° C. during imaging) to obtain the fluorescent readouts. The assay plates were imaged in the FITC and Tetramethylrhodamine (TRITC) channels to obtain the mNeonGreen fluorescence intensity (reporter degradation data) and mScarlet fluorescence intensity (for cell segmentation). 293T-IKZF1 and 293T-IKZF3 reporter cell lines were imaged with exposures of 500 milliseconds (ms) for both FITC and TRITC channels, while the 293T-IKZF2 reporter cell line was imaged with exposures of 1000 ms for FITC and 1250 ms for TRITC. The resulting data was analyzed with Cell Reporter Xpress software using the 2-channel cell scoring analysis with a “percent positive” readout. The TRITC channel was selected for the “nuclei” segmentation with a threshold of 20 while the FITC channel was selected for the “Marker 1” segmentation and a threshold of 100 for the IKZF and IKZF3 reporter lines. […] The minimum segmentation width was set to 6 micrometers and the maximum segmentation width was set to 15 micrometers for all cell lines. The DC50 calculations were determined by regression to best fit four-parameter logistic curves using GraphPad Prism.

IKZF1 (Ikaros) = IKZF1 (Ikaros) (Homo sapiens (Human), UniProt Q13422+Q96SW2); experiment: IKZF1 reporter degradation assay (HEK 293T IKZF1-mNeonGreen reporter cell line); type: cell-based; conditions: HEK 293T reporter cells, 24 hour incubation
Source text: as §1, §2, §3, §4, §5

IKZF3 (Aiolos) = IKZF3 (Aiolos) (Homo sapiens (Human), UniProt Q96SW2+Q9UKT9); experiment: IKZF3 reporter degradation assay (HEK 293T IKZF3-mNeonGreen reporter cell line); type: cell-based; conditions: HEK 293T reporter cells, 24 hour incubation
Source text: as §1, §2, §3, §4, §5

GSPT1 = GSPT1 (Homo sapiens (Human), UniProt P15170+Q96SW2); experiment: GSPT1 reporter degradation assay (HEK293 hGSPT1 HiBiT-tagged cells); type: cell-based; conditions: 24 hour incubation
Description: HEK293_hGSPT1_HiBiT-tagged cells were generated using CRISPR-Cas12a technology. Briefly, ˜400,000 HEK293 cells were transiently co-transfected with precomplexed ribonuclear proteins (RNPs) consisting of […] of crRNA (IDT), […] of Cas12a protein (IDT), 3 μg of ssODN donor (IDT; AltRTM modifications), 78 pmol of electroporation enhancer (IDT), and 200 ng of pMaxGFP (Lonza). The transfection was performed via nucleofection (Lonza, 4D-Nucleofector X-unit) using solution P3 and program CM-130 in a (20 μL) cuvette. Five days post-nucleofection, cells were single-cell-sorted for GFP+ (transfected) cells by FACs in 96-well plates and clonally selected. Clones were screened and verified for the desired modification via targeted deep sequencing using gene-specific primers with partial Illumina adapter overhangs as previously described. In brief, clonal cell pellets were harvested, lysed, and used to generate gene-specific amplicons with partial Illumina adapters in PCR #1. Amplicons were indexed in PCR #2 and pooled with other targeted amplicons for other loci to create sequence diversity. Additionally, 10% PhiX sequencing control V3 (Illumina) was added to the pooled amplicon library prior to running the sample on a Miseq Sequencer System (Illumina) to generate paired 2×250 bp reads. Samples were demultiplexed using the index sequences, fastq files were generated, and NGS analysis was performed using CRIS.py.
The GSTP1 degradation assay was carried out by harvesting the HEK 293T reporter cell lines and resuspending the cells in media formulated for reduced background fluorescence (FluoroBrite; Thermo Fisher). The respective cell lines were seeded at a density of 8,000 cells/well into white-opaque 384-well optical grade assay tissue culture plates (Greiner 781080-20). The cells were incubated overnight at 37° C. to allow for attachment to the assay plate. Dilutions of the compounds were prepared in DMSO from 10 mM compound stocks. […] Plates were centrifuged at 320×g for 2 minutes at room temperature, and subsequently incubated at 37° C.
After 24 hour incubation with the compounds, the plates were allowed to cool to room temperature for 10 minutes. 30 μL of HiBiT lytic buffer+1:50 HiBiT substrate Solution were added to each well. Plates were centrifuged at 320×g for 2 minutes at room temperature and then incubated with shaking at room temperature for 10 minutes covered with foil. Plates were read on a CLARIOstar microplate reader (BMG LabTech), measuring at 450 nm (donor emission) and 610 nm or 630 nm (acceptor emission). The DC50 values were determined by regression to best fit four-parameter logistic curves using GraphPad Prism.

[2] = Table 3, 2 hours at 37° C., read-out: CRBN Binding EC50
[3] = second (untitled) table after Table 3, read-out: CRBN Binding EC50
[4] = Table 3, HEK 293T reporter cells
[5] = second (untitled) table after Table 3

human E3 ligase component cereblon (CRBN), sequence (Q96SW2 whole entry): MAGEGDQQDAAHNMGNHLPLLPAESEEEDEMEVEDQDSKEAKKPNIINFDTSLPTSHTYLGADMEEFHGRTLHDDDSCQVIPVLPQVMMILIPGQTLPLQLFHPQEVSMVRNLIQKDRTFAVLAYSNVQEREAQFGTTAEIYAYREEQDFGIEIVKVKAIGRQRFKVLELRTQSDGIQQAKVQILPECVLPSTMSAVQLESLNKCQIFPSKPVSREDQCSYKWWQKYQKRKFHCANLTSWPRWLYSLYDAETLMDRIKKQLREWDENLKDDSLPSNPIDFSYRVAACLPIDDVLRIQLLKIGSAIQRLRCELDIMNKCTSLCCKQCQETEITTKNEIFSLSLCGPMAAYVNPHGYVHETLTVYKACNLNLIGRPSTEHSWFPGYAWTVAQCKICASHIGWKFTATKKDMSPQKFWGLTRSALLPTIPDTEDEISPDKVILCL
human E3 ligase component cereblon (CRBN), sequence (Q16531 whole entry partner): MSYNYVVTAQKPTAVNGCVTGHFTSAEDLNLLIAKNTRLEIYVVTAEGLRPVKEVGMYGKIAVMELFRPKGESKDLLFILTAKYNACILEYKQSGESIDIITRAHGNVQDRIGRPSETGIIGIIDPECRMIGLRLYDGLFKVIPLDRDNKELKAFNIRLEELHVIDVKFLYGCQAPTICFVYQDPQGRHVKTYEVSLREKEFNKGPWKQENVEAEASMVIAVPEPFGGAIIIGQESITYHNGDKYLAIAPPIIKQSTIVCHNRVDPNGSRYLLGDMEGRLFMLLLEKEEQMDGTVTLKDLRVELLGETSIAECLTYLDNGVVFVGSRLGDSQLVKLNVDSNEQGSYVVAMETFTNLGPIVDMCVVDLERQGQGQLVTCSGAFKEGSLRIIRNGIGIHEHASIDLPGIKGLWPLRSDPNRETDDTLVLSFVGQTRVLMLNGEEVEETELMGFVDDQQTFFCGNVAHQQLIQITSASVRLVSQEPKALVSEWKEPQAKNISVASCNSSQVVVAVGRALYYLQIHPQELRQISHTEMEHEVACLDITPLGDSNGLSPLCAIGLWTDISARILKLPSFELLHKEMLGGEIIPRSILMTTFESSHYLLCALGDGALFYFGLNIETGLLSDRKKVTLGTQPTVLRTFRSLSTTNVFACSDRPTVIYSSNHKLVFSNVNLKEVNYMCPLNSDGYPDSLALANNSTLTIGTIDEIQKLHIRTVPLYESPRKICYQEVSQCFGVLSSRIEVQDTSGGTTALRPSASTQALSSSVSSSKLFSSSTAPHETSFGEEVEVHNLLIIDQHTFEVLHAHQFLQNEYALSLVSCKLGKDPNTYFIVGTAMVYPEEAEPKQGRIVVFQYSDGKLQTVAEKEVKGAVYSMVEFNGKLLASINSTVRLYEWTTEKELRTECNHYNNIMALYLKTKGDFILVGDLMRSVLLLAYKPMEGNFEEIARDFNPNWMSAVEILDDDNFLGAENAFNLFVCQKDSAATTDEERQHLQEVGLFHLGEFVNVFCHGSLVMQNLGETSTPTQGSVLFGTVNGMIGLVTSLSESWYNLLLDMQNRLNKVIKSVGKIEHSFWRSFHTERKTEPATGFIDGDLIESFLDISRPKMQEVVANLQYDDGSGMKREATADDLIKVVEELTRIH
IKZF2 (Helios), sequence (Q9UKS7 whole entry, the tested form may be a part): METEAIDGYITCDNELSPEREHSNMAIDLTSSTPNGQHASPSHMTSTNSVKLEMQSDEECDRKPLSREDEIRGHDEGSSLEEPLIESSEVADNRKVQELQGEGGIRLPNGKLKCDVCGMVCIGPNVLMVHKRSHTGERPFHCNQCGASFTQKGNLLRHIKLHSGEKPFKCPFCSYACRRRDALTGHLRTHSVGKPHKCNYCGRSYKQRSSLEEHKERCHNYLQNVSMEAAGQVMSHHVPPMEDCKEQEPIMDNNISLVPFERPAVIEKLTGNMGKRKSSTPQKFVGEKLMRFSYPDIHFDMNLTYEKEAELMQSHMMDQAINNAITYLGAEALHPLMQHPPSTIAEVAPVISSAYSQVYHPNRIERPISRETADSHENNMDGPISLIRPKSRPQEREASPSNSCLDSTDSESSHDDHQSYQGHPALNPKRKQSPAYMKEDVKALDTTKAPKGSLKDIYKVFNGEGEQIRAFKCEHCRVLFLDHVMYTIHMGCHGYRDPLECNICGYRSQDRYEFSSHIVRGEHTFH
IKZF2 (Helios), sequence (Q96SW2 whole entry, the tested form may be a part): as the sequence (Q96SW2 whole entry) above
IKZF2 (Helios), sequence (Q16531 whole entry partner, the tested form may be a part): as the sequence (Q16531 whole entry partner) above
IKZF1 (Ikaros), sequence (Q13422 whole entry): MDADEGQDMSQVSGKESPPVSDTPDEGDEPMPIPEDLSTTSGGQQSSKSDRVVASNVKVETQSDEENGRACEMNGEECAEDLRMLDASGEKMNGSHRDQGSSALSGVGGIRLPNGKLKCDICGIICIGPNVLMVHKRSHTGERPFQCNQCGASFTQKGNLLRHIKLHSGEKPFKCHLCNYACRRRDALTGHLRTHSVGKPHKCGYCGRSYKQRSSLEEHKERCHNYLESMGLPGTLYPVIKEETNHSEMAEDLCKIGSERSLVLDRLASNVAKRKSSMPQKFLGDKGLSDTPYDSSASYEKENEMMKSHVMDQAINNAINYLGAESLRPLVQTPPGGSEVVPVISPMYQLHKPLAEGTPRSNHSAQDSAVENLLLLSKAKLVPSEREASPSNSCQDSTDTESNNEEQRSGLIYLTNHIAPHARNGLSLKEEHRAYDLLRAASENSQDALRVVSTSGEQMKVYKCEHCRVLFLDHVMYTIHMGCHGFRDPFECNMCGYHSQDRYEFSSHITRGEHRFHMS
IKZF1 (Ikaros), sequence (Q96SW2 whole entry): as the sequence (Q96SW2 whole entry) above
IKZF1 (Ikaros), sequence (Q16531 whole entry partner): as the sequence (Q16531 whole entry partner) above
IKZF3 (Aiolos), sequence (Q9UKT9 whole entry): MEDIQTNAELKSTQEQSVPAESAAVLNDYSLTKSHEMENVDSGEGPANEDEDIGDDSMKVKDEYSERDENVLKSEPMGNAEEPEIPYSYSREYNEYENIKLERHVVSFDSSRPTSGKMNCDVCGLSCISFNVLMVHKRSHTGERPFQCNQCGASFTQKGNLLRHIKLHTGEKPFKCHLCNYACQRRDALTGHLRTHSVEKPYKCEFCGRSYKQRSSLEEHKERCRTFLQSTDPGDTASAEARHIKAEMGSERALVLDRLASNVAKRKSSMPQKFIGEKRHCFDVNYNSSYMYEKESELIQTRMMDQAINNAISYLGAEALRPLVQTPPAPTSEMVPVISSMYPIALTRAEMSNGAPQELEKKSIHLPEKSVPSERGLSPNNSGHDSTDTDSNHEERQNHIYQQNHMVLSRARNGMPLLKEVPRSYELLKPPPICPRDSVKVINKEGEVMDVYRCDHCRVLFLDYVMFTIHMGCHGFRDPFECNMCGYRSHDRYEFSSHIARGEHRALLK
IKZF3 (Aiolos), sequence (Q96SW2 whole entry): as the sequence (Q96SW2 whole entry) above
IKZF3 (Aiolos), sequence (Q16531 whole entry partner): as the sequence (Q16531 whole entry partner) above
GSPT1, sequence (P15170 whole entry): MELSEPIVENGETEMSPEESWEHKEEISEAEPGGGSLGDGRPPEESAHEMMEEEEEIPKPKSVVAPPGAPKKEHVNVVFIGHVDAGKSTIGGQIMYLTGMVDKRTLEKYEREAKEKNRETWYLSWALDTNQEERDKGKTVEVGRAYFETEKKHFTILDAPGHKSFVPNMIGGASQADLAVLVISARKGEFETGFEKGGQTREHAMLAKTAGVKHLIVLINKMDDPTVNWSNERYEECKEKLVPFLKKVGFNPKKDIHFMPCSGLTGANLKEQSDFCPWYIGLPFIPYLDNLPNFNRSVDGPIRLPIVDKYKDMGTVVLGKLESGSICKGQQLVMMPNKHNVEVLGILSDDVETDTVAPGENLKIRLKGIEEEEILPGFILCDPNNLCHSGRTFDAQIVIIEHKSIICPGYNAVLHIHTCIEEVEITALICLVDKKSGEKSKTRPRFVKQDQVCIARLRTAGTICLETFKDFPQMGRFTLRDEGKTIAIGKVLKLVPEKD
GSPT1, sequence (Q96SW2 whole entry): as the sequence (Q96SW2 whole entry) above
GSPT1, sequence (Q16531 whole entry partner): as the sequence (Q16531 whole entry partner) above

Structure (SMILES)	EC50 [1, 2] [µM]	EC50 [1, 3] [µM]	inhibition at 1 µM (IKZF2 (Helios); [4]) [%]	inhibition at 1 µM (IKZF2 (Helios); [5]) [%]	further results
COC1CCC(C2CN([C@H]3CCC[C@@H]3Oc3ccc4c(c3)CN(C3CCC(=O)NC3=O)C4=O)C2)CC1 (stereo partly drawn) [Compound 10, 3-(5-(((1S,2S)-2-(3-((trans)-4-methoxycyclohexyl)azetidin-1-yl)cyclopentyl)oxy)-1-oxoisoindolin-2-yl)piperidine-2,6-dione]	–	–	–	–	IKZF2% Degradation @ 1 μM (IKZF2 (Helios); [4]): 80.8%; IKZF2% Degradation @ 1 μM (IKZF2 (Helios); [5]): 80.8%
COC1CCC(C2CN([C@H]3CCCC[C@@H]3Oc3ccc4c(c3)CN(C3CCC(=O)NC3=O)C4=O)C2)CC1 (stereo partly drawn) [Compound 7, 3-(5-(((1S,2S)-2-(3-((cis)-4-methoxycyclohexyl)azetidin-1-yl)cyclohexyl)oxy)-1-oxoisoindolin-2-yl)piperidine-2,6-dione]	–	–	80.1	–	IKZF2% Degradation @ 1 μM (IKZF2 (Helios); [5]): 80.1%
COC1CCC(C2CN([C@H]3CCCC[C@@H]3Oc3ccc4c(c3)CN(C3CCC(=O)NC3=O)C4=O)C2)CC1 (stereo partly drawn) [Compound 8, 3-(5-(((1S,2S)-2-(3-((trans)-4-methoxycyclohexyl)azetidin-1-yl)cyclohexyl)oxy)-1-oxoisoindolin-2-yl)piperidine-2,6-dione]	–	–	–	80.1	IKZF2% Degradation @ 1 μM (IKZF2 (Helios); [4]): 80.1%
COC1CCC(C2CN([C@H]3CCC[C@@H]3Oc3ccc4c(c3)CN(C3CCC(=O)NC3=O)C4=O)C2)CC1 (stereo partly drawn) [Compound 9, 3-(5-(((1S,2S)-2-(3-((cis)-4-methoxycyclohexyl)azetidin-1-yl)cyclopentyl)oxy)-1-oxoisoindolin-2-yl)piperidine-2,6-dione]	–	–	77.7	77.7	–

Now from value to molecule, other results behind:

EC50 [1, 2] [µM]	EC50 [1, 3] [µM]	inhibition at 1 µM (IKZF2 (Helios); [4]) [%]	inhibition at 1 µM (IKZF2 (Helios); [5]) [%]	Structure (SMILES)	further results
> 10	> 10	–	–	COC1CCC(C2CN([C@H]3CCCC[C@@H]3Oc3ccc4c(c3)CN(C35CC(C3)C(=O)NC5=O)C4=O)C2)CC1 (stereo partly drawn) [Compound 11, 1-(5-(((1S,2S)-2-(3-((cis)-4-methoxycyclohexyl)azetidin-1-yl)cyclohexyl)oxy)-1-oxoisoindolin-2-yl)-3-azabicyclo[3.1.1]heptane-2,4-dione]	–
> 10	> 10	–	–	O=C1NC(=O)C2(N3Cc4cc(O[C@H]5CCC[C@@H]5N5CC(C6CCC(F)(F)CC6)C5)ccc4C3=O)CC1C2 [Compound 14, 1-(5-(((1S,2S)-2-(3-(4,4-difluorocyclohexyl)azetidin-1-yl)cyclopentyl)oxy)-1-oxoisoindolin-2-yl)-3-azabicyclo[3.1.1]heptane-2,4-dione]	–
6.21	6.21	–	–	O=C1NC(=O)C2(N3Cc4cc(O[C@H]5CCCC[C@@H]5N5CC(C6CCC(F)(F)CC6)C5)ccc4C3=O)CC1C2 [Compound 15, 1-(5-(((1S,2S)-2-(3-(4,4-difluorocyclohexyl)azetidin-1-yl)cyclohexyl)oxy)-1-oxoisoindolin-2-yl)-3-azabicyclo[3.1.1]heptane-2,4-dione]	–
–	–	87.4	87.4	N#CC1(C2CN([C@H]3CCCC[C@@H]3Oc3ccc4c(c3)CN(C3CCC(=O)NC3=O)C4=O)C2)CCC1 (stereo partly drawn) [Compound 23, 1-(1-((1S,2S)-2-((2-(2,6-dioxopiperidin-3-yl)-1-oxoisoindolin-5-yl)oxy)cyclohexyl)azetidin-3-yl)cyclobutane-1-carbonitrile]	DC50 (IKZF1 (Ikaros)): > 30 µM; DC50 (IKZF2 (Helios); HEK 293T reporter cells): 0.003 µM; DC50 (IKZF3 (Aiolos)): > 30 µM; DC50 (GSPT1): > 30 µM
> 10	> 10	–	–	COC1CCC(C2CN([C@H]3CCC[C@@H]3Oc3ccc4c(c3)CN(C35CC(C3)C(=O)NC5=O)C4=O)C2)CC1 (stereo partly drawn) [Compound 12, 1-(5-(((1S,2S)-2-(3-((cis)-4-methoxycyclohexyl)azetidin-1-yl)cyclopentyl)oxy)-1-oxoisoindolin-2-yl)-3-azabicyclo[3.1.1]heptane-2,4-dione]	–
